This assay addresses T1, IRAK4 (Homo sapiens, UniProt Q9NWZ3).
T1 construct: endogenous in cells; host or cells: OCI-LY10
T1 sequence (Q9NWZ3 1-460): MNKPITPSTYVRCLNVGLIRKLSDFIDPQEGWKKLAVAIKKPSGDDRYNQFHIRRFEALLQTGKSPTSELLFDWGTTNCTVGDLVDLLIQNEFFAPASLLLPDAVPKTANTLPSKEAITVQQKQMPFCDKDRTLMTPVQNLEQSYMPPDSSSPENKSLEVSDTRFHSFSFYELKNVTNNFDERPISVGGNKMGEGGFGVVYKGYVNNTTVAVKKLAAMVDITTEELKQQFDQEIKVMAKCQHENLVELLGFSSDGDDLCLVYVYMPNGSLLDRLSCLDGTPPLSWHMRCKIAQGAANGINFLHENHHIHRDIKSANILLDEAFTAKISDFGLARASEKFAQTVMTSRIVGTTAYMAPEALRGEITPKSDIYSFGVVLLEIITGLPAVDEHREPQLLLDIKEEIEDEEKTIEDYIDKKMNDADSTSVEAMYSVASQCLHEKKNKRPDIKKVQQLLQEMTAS
The assay is described as follows: IRAK4 MSD degradation in OCI-LY10. In kind it is cell-based. The conditions noted are these: OCI-LY10 cells, 24 hrs, Meso Scale Discovery. The procedure:
Degradation of IRAK4 in OCI-LY10 was quantitatively measured using Meso Scale Discovery technology. […] Compounds were then added to the assay plates with a final top concentration of 1 to 10 μM in a 1:3 dilution series with total of 8 doses. The assay plates were then incubated for 4 to 24 hours at 37° C. under 5% CO2. […] To prepare MSD assay plates (Meso Scale Discovery Catalog number L15XA-3), the plates were coated with 2 μg/mL capture antibody (mouse Anti-IRAK4 antibody [2H9], ab119942) in PBS, at 40 μL/well. […] Cell lysates were then added to MSD assay plates and the plates were incubated at room temperature for 1 hour. The plates were then washed 3 times with 150 μL/well TBST buffer and 25 μL/well primary detection antibody (rabbit Anti-IRAK4 antibody [Y279], from Abcam. Catalog number ab32511, 1 μg/mL). The assay plates were then incubated at room temperature for 1 hour, washed 3 times with 150 μL/well TBST buffer and 25 μL/well secondary detection antibody, SULFO-TAG anti-rabbit antibody were added (anti-rabbit antibody from Meso Scale Discovery, Catalog number R32AB-1, 1 μg/mL). The assay plates were then incubated at room temperature for 1 hour, washed 3 times with 150 μL/well TBST buffer, and 150 μL/well MSD reading buffer (Meso Scale Discovery catalog number R92TC-2) was added. The plates were then analyzed by a MSD reader (Meso Scale Discovery, Model Quick Plex SQ 120). The data was then analyzed by software Prism 7.0 from GraphPad and the dose-depended IRAK4 degradation were fit using a three-parameter logistic equation to calculate DC50.
The letter codes for IRAK4 DC50 include: A (<0.01 μM); B (0.01 to <0.1 μM); C (0.1 to 0.2 μM); D (>0.2 μM) and E (not tested).
Broadly, the DC50 is the concentration at which degradation of the target reaches its halfway point. In turn, `CN(C[C@H]1C[C@@H](n2cc(NC(=O)c3cnn4ccc(N5C[C@H]6C[C@@H]5CO6)nc34)c(C(F)F)n2)C1)[C@H]1CCN(c2cccc3c2n(C)c(=O)n3C2CCC(=O)NC2=O)C[C@@H]1F` (single isomer, unassigned) [I-4] gave a DC50 of less than 10 nM. The compound `CN(C[C@H]1C[C@H](n2cc(NC(=O)c3cnn4ccc(N5C[C@H]6C[C@@H]5CO6)nc34)c(C(F)F)n2)C1)[C@H]1CCN(c2cccc3c2n(C)c(=O)n3C2CCC(=O)NC2=O)C[C@@H]1F` (single isomer, unassigned) [I-6] displayed a DC50 of less than 10 nM. With `Cn1c(=O)n(C2CCC(=O)NC2=O)c2cccc([C@H]3CCN(C[C@H]4CC[C@H](n5cc6cc(NC(=O)c7cccc(C(F)(F)F)n7)ccc6n5)CC4)C[C@@H]3F)c21` (single isomer, unassigned) [I-11] the figure was less than 10 nM. For `Cn1c(=O)n(C2CCC(=O)NC2=O)c2cccc([C@@H]3CCN(C[C@H]4CC[C@H](n5cc6cc(NC(=O)c7cccc(C(F)(F)F)n7)ccc6n5)CC4)C[C@H]3F)c21` (single isomer, unassigned) [I-12] the value was less than 10 nM; for `CN(C[C@H]1CC[C@H](n2cc(NC(=O)c3cnn4ccc(N5C[C@H]6C[C@@H]5CO6)nc34)c(C(F)F)n2)CC1)[C@@H]1CCN(c2cccc3c2n(C)c(=O)n3C2CCC(=O)NC2=O)C[C@@H]1F` (single isomer, unassigned) [I-29], less than 10 nM. For `CN(C[C@H]1CC[C@H](n2cc3cc(NC(=O)c4cccc(C(F)(F)F)n4)ncc3n2)CC1)[C@H]1CCN(c2cccc3c2n(C)c(=O)n3C2CCC(=O)NC2=O)C[C@@H]1F` (single isomer, unassigned) [I-36] the value was 10 to 100 nM; for `CN(C[C@H]1C[C@H](n2cc(NC(=O)c3cnn4ccc(N5C[C@H]6C[C@@H]5CO6)nc34)c(C(F)F)n2)C1)[C@@H]1CCN(c2cccc3c2n(C)c(=O)n3C2CCC(=O)NC2=O)C[C@@H]1F` (single isomer, unassigned) [I-59], less than 10 nM.

On to `CN(C[C@H]1C[C@H](n2cc(NC(=O)c3cnn4ccc(N5C[C@H]6C[C@@H]5CO6)nc34)c(C(F)F)n2)C1)[C@H]1CCN(c2cccc3c2n(C)c(=O)n3C2CCC(=O)NC2=O)C[C@H]1F` (single isomer, unassigned) [I-60], for which the DC50 is less than 10 nM. Turning to `O=C1CCC(Nc2ccc(N3CC(CO[C@@H]4CCN(C[C@H]5CC[C@H](n6cc(NC(=O)c7cnn8ccc(N9C[C@H]%10C[C@@H]9CO%10)nc78)c(C(F)F)n6)CC5)C[C@@H]4F)C3)cc2)C(=O)N1` (single isomer, unassigned) [I-73], the DC50 lay within 10 to 100 nM. With `O=C1CCN(c2cncc3c(N4CC(CO[C@H]5CCN(C[C@H]6CC[C@H](n7cc(NC(=O)c8cnn9ccc(N%10C[C@H]%11C[C@@H]%10CO%11)nc89)c(C(F)F)n7)CC6)C[C@@H]5F)C4)cccc23)C(=O)N1` (single isomer, unassigned) [I-75] the figure was 10 to 100 nM; with `COc1cc2nc([C@H]3CC[C@H](CN4CC[C@@H](c5cccc6c5n(C)c(=O)n6C5CCC(=O)NC5=O)[C@H](F)C4)CC3)sc2cc1NC(=O)c1cccc(C(F)(F)F)n1` (single isomer, unassigned) [I-78], 100 to 200 nM. For `COc1cc2nc([C@H]3CC[C@H](CN4CC[C@H](c5cccc6c5n(C)c(=O)n6C5CCC(=O)NC5=O)[C@@H](F)C4)CC3)sc2cc1NC(=O)c1cccc(C(F)(F)F)n1` (single isomer, unassigned) [I-79] the value was more than 200 nM; for `O=C1CCC(Nc2ccc(N3CC(CO[C@H]4CCN(C[C@H]5CC[C@H](n6cc(NC(=O)c7cnn8ccc(N9C[C@H]%10C[C@@H]9CO%10)nc78)c(C(F)F)n6)CC5)C[C@@H]4F)C3)cc2)C(=O)N1` (single isomer, unassigned) [I-85], 10 to 100 nM. With `COc1cc2nc([C@H]3CC[C@H](CN4CC[C@H](c5cccc6c5n(C)c(=O)n6C5CCC(=O)NC5=O)[C@@H](F)C4)CC3)oc2cc1NC(=O)c1cccc(C(F)(F)F)n1` (single isomer, unassigned) [I-89] the figure was more than 200 nM. `Cn1c(=O)n(C2CCC(=O)NC2=O)c2cccc([C@@H]3CCN(C[C@H]4CC[C@H](n5cc6cc(NC(=O)c7cccc(C(F)(F)F)n7)c(C#N)cc6n5)CC4)C[C@H]3F)c21` (single isomer, unassigned) [I-95] yielded a DC50 of less than 10 nM.

`Cn1c(=O)n(C2CCC(=O)NC2=O)c2cccc([C@H]3CCN(C[C@H]4CC[C@H](n5cc6cc(NC(=O)c7cccc(C(F)(F)F)n7)c(C#N)cc6n5)CC4)C[C@@H]3F)c21` (single isomer, unassigned) [I-96]: the DC50 is less than 10 nM. Regarding `COc1cc2nc([C@H]3CC[C@H](CN(C)[C@@H]4CCN(c5cccc6c5n(C)c(=O)n6C5CCC(=O)NC5=O)C[C@H]4F)CC3)sc2cc1NC(=O)c1cccc(C(F)(F)F)n1` (single isomer, unassigned) [I-98], the DC50 was 10 to 100 nM. For `COc1cc2nc([C@H]3CC[C@H](CN(C)[C@@H]4CCN(c5cccc6c5n(C)c(=O)n6C5CCC(=O)NC5=O)C[C@@H]4F)CC3)sc2cc1NC(=O)c1cccc(C(F)(F)F)n1` (single isomer, unassigned) [I-99] the value was less than 10 nM; for `COc1cc2nn([C@H]3CC[C@H](CN4CC[C@H](c5cccc6c5n(C)c(=O)n6C5CCC(=O)NC5=O)[C@@H](F)C4)CC3)cc2cc1NC(=O)c1cncc(C#N)c1` (single isomer, unassigned) [I-100], less than 10 nM. For `COc1cc2nn([C@H]3CC[C@H](CN4CC[C@@H](c5cccc6c5n(C)c(=O)n6C5CCC(=O)NC5=O)[C@H](F)C4)CC3)cc2cc1NC(=O)c1cncc(C#N)c1` (single isomer, unassigned) [I-101] the value was less than 10 nM. For `COc1cc2nc([C@H]3CC[C@H](CN4CC[C@@H](c5cccc6c5n(C)c(=O)n6C5CCC(=O)NC5=O)[C@H](F)C4)CC3)oc2cc1NC(=O)c1cccc(C(F)(F)F)n1` (single isomer, unassigned) [I-121] the value was 10 to 100 nM; for `CN(C[C@H]1CC[C@H](n2cc(NC(=O)c3cnn4ccc(N5C[C@H]6C[C@@H]5CO6)nc34)c(C(F)F)n2)CC1)[C@H]1CCN(c2cccc3c2n(C)c(=O)n3[C@@H]2CCC(=O)NC2=O)C[C@@H]1F` (single isomer, unassigned) [I-143], less than 10 nM.

`CN(C[C@H]1CC[C@H](n2cc(NC(=O)c3cnn4ccc(N5C[C@H]6C[C@@H]5CO6)nc34)c(C(F)F)n2)CC1)[C@H]1CCN(c2cccc3c2n(C)c(=O)n3[C@H]2CCC(=O)NC2=O)C[C@@H]1F` (single isomer, unassigned) [I-144] gave a 50% degradation concentration (DC50) of less than 10 nM.

`CN(C[C@H]1CC[C@H](n2cc(NC(=O)c3cnn4cccnc34)c(C(F)F)n2)CC1)[C@H]1CCN(c2cccc3c2n(C)c(=O)n3C2CCC(=O)NC2=O)C[C@H]1F` (single isomer, unassigned) [I-145] returned a DC50 of less than 10 nM. With `COc1ccc2c(c1N1CC[C@H](N(C)C[C@H]3CC[C@H](n4cc(NC(=O)c5cnn6cccnc56)c(C(F)F)n4)CC3)[C@@H](F)C1)n(C)c(=O)n2C1CCC(=O)NC1=O` (single isomer, unassigned) [I-146] the figure was less than 10 nM.

As to `COc1ccc2c(c1N1CC[C@H](N(C)C[C@H]3CC[C@H](n4cc(NC(=O)c5cnn6cccnc56)c(C(F)F)n4)CC3)[C@H](F)C1)n(C)c(=O)n2C1CCC(=O)NC1=O` (single isomer, unassigned) [I-147], the DC50 is less than 10 nM.
